Legend:
NF-κB = experiment: Target DNA binding activity of NF-κB in skeletal muscle (TransAM NF-κB ELISA); format: in vivo; settings: gastrocnemius muscle; C57BL/6 mice; cisplatin-treated; Pae 10 and Pae 20; FIG. 12C
Method: Nuclear and cytoplasmic lysates were prepared from the skeletal muscle using a nuclear extraction kit (Active Motif, Carlsbad, CA, USA). The protein concentration of both lysates was measured using the BCA Protein Assay Kit (Pierce). Anti-NF-κB p65 was used as the primary antibody, and 10 μg of protein per lysate was analyzed by Western blotting. TBP (TATA box-binding protein) and β-actin were as controls for the nuclear and cytosolic lysates, respectively. The target DNA binding activity of NF-κB was measured using the TransAM NF-κB ELISA kit (Active Motif, USA).

[1] = test system: Balb/c mice with colon-26 carcinoma-induced cachexia; experiment: Muscle strength and endurance in Balb/c mice with colon-26 carcinoma-induced cachexia; format: in vivo; settings: colon-26 carcinoma-injected, paeoniflorin orally for 9 days
Method: As the experimental animals, 4-week-old female C57BL/6 mice and Balb/c mice weighing 18 g to 20 g were purchased from Raon Bio (Yongin, Korea), acclimatized in the laboratory animal facility for one week, and then used in the experiment. During the experiment period, the animals were provided with solid feed and water ad libitum, and the breeding room was maintained at a temperature of 20° C. to 24° C. and a relative humidity of 55% to 65% with a 12-hr light/12-hr dark cycle.
Mice were divided into a control group and a cachexia-induced group, and the cachexia-induced group was subdivided into a tumor cell-injected group, a tumor cell-injected and existing drug (MA, megestrol acetate)-administered group, and tumor cell-injected and paeoniflorin (Pae)-administered groups. Each group consisted of 10 animals.
Each mouse of the control group was injected subcutaneously with 100 μL of saline solution. For the cachexia-induced groups, Lewis lung carcinoma cells (C57BL/6 mice) or colon-26 carcinoma cells (Balb/c mice) were injected subcutaneously into the flank area of each mouse at a dose of 10^6 cells/100 μL/mouse. […] After completion of 9 days of administration, the muscle strength of the mice was measured using a grip strength test device (Bioseb, USA), and the endurance of the mice was measured using a treadmill device (Columbus Instrument, USA).

C[C@@]12C[C@@]3(O)O[C@@H](O1)[C@]1(COC(=O)c4ccccc4)[C@H]3C[C@@]12O[C@@H]1O[C@H](CO)[C@@H](O)[C@H](O)[C@H]1O [paeoniflorin]
target DNA binding activity of NF-κB (NF-κB): decreased | muscle strength ([1]; FIG. 17A): significantly increased | endurance ([1]; FIG. 17B): significantly increased

Source: patent US20240325420A1, “COMPOSITION INCLUDING PAEONIFLORIN FOR PREVENTION OR TREATMENT OF CACHEXIA AND MUSCLE LOSS” (CHUNG ANG UNIVERSITY INDUSTRY ACADEMIC COOPERATION …, priority 2021, published 2024)
